Several values for one entry are separate records, joined by “and”; a condition that tells them apart may be missing. Identical values can stand only once. Entries after “also recorded” stand apart in the source; their conditions may differ. Where no end group is shown, it is not given here.
Assays:
Assay type in all cases: cell-based
[1] = tested on: Staphylococcus aureus (SA); assay: Broth microdilution anti-bacterial assay (CLSI), Staphylococcus aureus; settings: SA; for MIC: overnight, 37° C., ≥99% inhibition; for MBC: ≥99% killing
[2] = tested on: Staphylococcus aureus (SA); assay: Time-kill assay, Staphylococcus aureus; settings: for time to kill SA (in words): 1X MBC; for Time kill SA, >99% killing: at 1X MBC, * indicates killing within seconds
Procedure: The bactericidal abilities of the variant peptides are not only effective, but also fast-acting. […] The killing kinetics are detailed in Table 11 below.
Pseudomonas aeruginosa (PA) and Staphylococcus aureus (SA) strains were grown as per CLSI guidelines. AMPs were added to the bacterial cultures at their 1X MBC concentrations. Upon treatment, the bacterial cultures were enumerated for viable counts immediately within 1 min, 5 min, 15 min, 30 min and 60 min post-treatments.

human keratinocytes = assay: 2D scratch assay, keratinocyte migration
Procedure: Wound healing is directly associated with the migration speed of keratinocytes. The migration speed of human keratinocytes in presence of E1AM2, V8L (SEQ ID NO: 19), and Q19L variants is tested in comparison with pexiganan (SEQ ID NO: 54). Migration speed of human keratinocytes assessed in a 2D scratch assay at D 0 and D 2 timepoints. Decrease in wound area over time was measured by applying an ImageJ plugin ‘Wound Healing Size Tool’ on bright-field images. The change in wound area over the course of 48 hours was used as a measure of the migration speed of keratinocytes. Each value is the mean±SD (n=3). The p-value was calculated using ANOVA for multiple comparisons (Dunnett's multiple comparisons test). **** p<0.0001. *** p<0.001. ** p <0.01. * p<0.05. […] Both peptides healed wound faster within their respective MIC and MBC concentrations. […] SEQ ID NO: 27=Q19L; SEQ ID NO: 2=E1AM2; SEQ ID NO: 19=V8L.
Wound closure was compared with the untreated samples (circle, red highlight). For improved clarity, error bars have been omitted from this representation. […] Each value is the mean±SD (n=3). Statistical significance was assessed using ANOVA for multiple comparisons (Dunnett's multiple comparisons test). **** p<0.0001, *** p<0.001, ** p<0.01, *p<0.05, ns denotes nonsignificance, p >0.05.
Wound areas of the human keratinocyte culture were assessed in presence of peptides in a 2D scratch assay at the 0 hour, and 48-hour time points by applying an ImageJ plugin, ‘Wound Healing Size Tool’ on brightfield images. Quantification of wound width was calculated by obtaining the averaged Euclidean distance between each paired pixel at the lateral wound edges. The change in wound area over the course of 48 hours was used as a measure of the migration speed of keratinocytes.
Using the inverted BioTek Lionheart LX Automated Microscope, brightfield images were obtained at 4× magnification to observe the wound area at timepoints 0 (before treatment) and 48 hours-post treatment. Microscopy settings were maintained as focus offset (781.3 μm), illumination (2), integration Time (21) with no gain. To cover the entire well, montage images of four rows by three columns were stitched together by enabling the “image stitching” function and images were saved in tiff-format.

[3] = tested on: human red blood cells (hRBCs); assay: Hemolysis assay; settings: for minimum concentration corresponding to 10% hemolysis (HC) / hemolysis (in words): hRBCs; for minimum concentration corresponding to 10% hemolysis (HC): 37° C.; for hemolysis (in words): FIG. 8 up to 100 μM
Procedure: The hemolytic score of the peptide variants and pexiganan (SEQ ID NO: 54) are compared to a strong hemolytic peptide, melittin 12 as a control. […] The minimum peptide concentration corresponding to 10% hemolysis (minimal hemolysis concentration, HC) of E1AM2=50 μM, V8LQ19L=12.5 μM, V8LQ19L C-2=3.125 μM, and pexiganan=12.5 μM respectively. Readings of the melittin at 3.125 μM were normalised to 100%.
Examination of hemolytic activity of ultra-short peptides was performed by isolating the red blood cells (RBCs) from human blood samples by centrifugation (1000 g, 4° C., 10 min) and resuspension in 27 mL PBS. This washing step was repeated four times before the RBCs were diluted to a 10% (v/v) suspension. […] Hemolytic properties of E1AM2 and pexiganan were evaluated with melittin used as a positive control, and PBS as a negative control. The plates were incubated at 37° C., for 30 min and then centrifuged (1258 g, 4° C., 6 min). 75 μL of supernatant were transferred into a flat-bottom clear 96-well plate and the OD576 nm was read. Readings of the melittin sample at 3.125 μM were normalized to 100%.

Which MIC [1] does the source give for KKLLKKWLKLSKKALKLALSL-NH2 [V8LQ19L] here?
The MIC was 1.56 µM.

What about the MIC ([1]; listed as VBLQ19L) of the same substance?
The MIC was 1.56 µM.

What about the MBC [1] of the same substance?
The MBC was 1.56 µM.

What about the MBC ([1]; listed as VBLQ19L) of the same substance?
Its MBC is 1.56 µM.

And the “time to kill SA (in words)” value [2]?
The value was “within seconds”.

And the “Time kill SA, >99% killing” value [2]?
The value was 1* min.

And the “wound closure, 2D scratch” value (human keratinocytes; up to 16X MBC)?
The value was “did not impair wound healing”.

And the “minimum concentration corresponding to 10% hemolysis (HC)” value ([3]; 30 min)?
Its value is 12.5 µM.

And the “hemolysis (in words)” value [3]?
Its value is “do not cause hemolysis”.

What does the source list for “E1AM2: untagged (E1AM2), KKLLKKWVKLSKKALKLAQSL”?
MIC [1]: 6.25 µM and 6.28 µM; MBC [1]: 12.5 µM; time to kill SA (in words) [2]: within minutes; Time kill SA, >99% killing [2]: 1 min; migration speed of keratinocytes (human keratinocytes; 48 h, E1AM2 3.125-12.5 μM, Q19L 3.125-6.25 μM): increase keratinocyte migration; also recorded: increased the migration speed of keratinocytes significantly; hemolysis ([3]; at respective MIC/MBC concentrations, melittin 3.125 μM = 100%, 30 min): ~ 0%; minimum concentration corresponding to 10% hemolysis (HC) ([3]; 30 min): 50 µM; hemolysis (in words) [3]: do not cause hemolysis
